One assay deals with P388D1 cells. Nature of the assay: Permeabilisation of the cell membrane: LDH release (Cytotox 96). The format is cell-based, murine. The note with it: isotonic conditions; FIG. 12. As for the experimental part: Peptides can be absorbed by APCs by means of specific mechanisms such as macropinocytosis or receptor-mediated endocytosis (Lanzavecchia, 1996). An alternative mechanism may consist in the polyamino acids making the cell membrane permeable and in this way allowing peptides to diffuse from the medium into the cytoplasm. • a) The possible permeabilisation of the cell membrane was tested by measuring the release of the cytoplasmic enzyme lactate dehydrogenase (LDH) after the incubation of P388D1 cells with polyamino acids (polylysine or polyarginine) under isotonic conditions using the commercially available kit (Cytotox 96, Promega, Madison, Wis., USA) in accordance with the manufacturer's instructions. […] When samples treated with polyamino acids alone were compared, no difference in the release of LDH was found compared with treatment with a mixture of polylysine or polyarginine with peptide. […] The fluorescence emitted by FITC is strongly pH-dependent. In an environment with pH conditions such as those found in endosomes, fluorescence is suppressed. Therefore, FITC-labelled peptides which are absorbed by the cells into the endosomes show reduced fluorescence. When monensin is added, the low pH of the endosomes is neutralised, leading to a measurably greater fluorescence of the internalised FITC-labelled peptides.

The next assay concerns APCs. The assay can be described thus: Internalisation of FITC-labelled peptide (monensin treatment, 4° C. versus 37° C.), throughflow cytometry. The format is cell-based. Conditions: incubated at 37° C., then 50 μM monensin at 4° C.; FIG. 13. As for the experimental part: Peptides can be absorbed by APCs by means of specific mechanisms such as macropinocytosis or receptor-mediated endocytosis (Lanzavecchia, 1996). An alternative mechanism may consist in the polyamino acids making the cell membrane permeable and in this way allowing peptides to diffuse from the medium into the cytoplasm. • a) The possible permeabilisation of the cell membrane was tested by measuring the release of the cytoplasmic enzyme lactate dehydrogenase (LDH) after the incubation of P388D1 cells with polyamino acids (polylysine or polyarginine) under isotonic conditions using the commercially available kit (Cytotox 96, Promega, Madison, Wis., USA) in accordance with the manufacturer's instructions. […] The fluorescence emitted by FITC is strongly pH-dependent. In an environment with pH conditions such as those found in endosomes, fluorescence is suppressed. Therefore, FITC-labelled peptides which are absorbed by the cells into the endosomes show reduced fluorescence. When monensin is added, the low pH of the endosomes is neutralised, leading to a measurably greater fluorescence of the internalised FITC-labelled peptides.
The cells were incubated with a mixture of polyarginine (average molecular weight range 100,000, chain length 490) and fluorescence-labelled peptide at 4° C. or 37° C. […]

With “LFEAIEGFI [FITC-labelled model peptide antigen, MHC Kd-restricted, derived from influenza haemagglutinin]”, the “LDH released from cells” value in the assay on P388D1 cells is reported as “no measurable LDH-activity”. Also, the “change in fluorescence after monensin treatment” value in the assay with APCs is reported as “only a slight increase in fluorescence”.

The values are drawn from patent US7105162B1, “Pharmaceutical composition for immunomodulation based on peptides and adjuvants” (Boehringer Ingelheim International GmbH, priority 1996, dated 2006).
